Laboratory results as given in patent publication US11839613B2, “Pyrimidine derivatives as PGE2 receptor modulators” (IDORSIA PHARMACEUTICALS LTD, priority 2017, dated 2023).

Tests used:
PTGER2 (EP2) = PTGER2 (EP2) (Homo sapiens (Human), UniProt P43116); test: hEP2 b-arrestin assay (PathHunter HEK 293 PTGER2 b-arrestin cells); assay type: cell-based; conditions: antagonistic activity, beta-arrestin assay; read-out: hEP2 b-arr IC50
Method: Plate is pre-incubated 15 minutes at 37° C. Then five microliters of PGE2 (final conc. 5 μM) are transferred into the assay plate. Plate is incubated 120 minutes at 37° C.
(each concentration is measured in duplicate)

PTGER4 (EP4) = PTGER4 (EP4) (Homo sapiens (Human), UniProt P35408); test: cell-based
PTGER4 (EP4), sequence (P35408 whole entry): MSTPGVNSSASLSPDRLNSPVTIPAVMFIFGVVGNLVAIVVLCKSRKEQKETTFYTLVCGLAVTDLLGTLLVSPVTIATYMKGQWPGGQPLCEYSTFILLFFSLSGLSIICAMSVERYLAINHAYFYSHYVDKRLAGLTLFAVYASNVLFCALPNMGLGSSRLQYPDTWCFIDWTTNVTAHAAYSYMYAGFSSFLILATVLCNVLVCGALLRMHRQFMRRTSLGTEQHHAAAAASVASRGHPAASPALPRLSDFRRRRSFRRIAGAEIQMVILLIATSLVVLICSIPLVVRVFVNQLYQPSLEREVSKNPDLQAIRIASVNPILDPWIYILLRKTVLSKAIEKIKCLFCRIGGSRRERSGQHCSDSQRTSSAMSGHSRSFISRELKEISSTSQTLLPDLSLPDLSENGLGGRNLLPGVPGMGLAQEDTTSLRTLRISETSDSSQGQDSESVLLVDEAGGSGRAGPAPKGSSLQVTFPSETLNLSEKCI
Text: The system is based on the Enzyme Fragment Complementation Technology. Two complementing fragments of the b-galactosidase enzyme are expressed within stably transfected cells. The larger portion of b-gal, termed EA for Enzyme Acceptor, is fused to the C-terminus of b-arrestin 2. The smaller fragment, termed ProLink™ tag, is fused to PTGER2 (EP2) or PTRGER4 (EP4) at the C-terminus. Upon activation, b-arrestin is recruited which forces the interaction of ProLink and EA, allowing complementation of the two fragments of b-gal and the formation of a functional enzyme which is capable of hydrolysing the substrate and generating a chemiluminescent signal.
Plate is incubated at 37° C., 5% CO2 for 24 hours.
Stock solutions of test compounds are made at a concentration of 10 mM in DMSO, and serially diluted in DMSO to concentrations required for inhibition dose response curves (tested concentration range 10 μM-2 nM or 1 μM-0.2 nM).
Five microliters of diluted compounds are transferred into the assay plate. Plate is pre-incubated 15 minutes at 37° C. Then five microliters of PGE2 (final conc. 20 nM) are transferred into the assay plate. Plate is incubated 120 minutes at 37° C.
Twelve I of reagent are transferred to the assay plate and incubate for 1 hour at RT in the dark. Luminescence counts are read on a BMG Fluostar Optima reader according to manufacturer's instructions.
For each compound concentration calculate of the percentage of activity compared to DMSO control value as average ±STDEV. (each concentration is measured in duplicate)

PTGER2 (EP2), sequence (P43116 whole entry): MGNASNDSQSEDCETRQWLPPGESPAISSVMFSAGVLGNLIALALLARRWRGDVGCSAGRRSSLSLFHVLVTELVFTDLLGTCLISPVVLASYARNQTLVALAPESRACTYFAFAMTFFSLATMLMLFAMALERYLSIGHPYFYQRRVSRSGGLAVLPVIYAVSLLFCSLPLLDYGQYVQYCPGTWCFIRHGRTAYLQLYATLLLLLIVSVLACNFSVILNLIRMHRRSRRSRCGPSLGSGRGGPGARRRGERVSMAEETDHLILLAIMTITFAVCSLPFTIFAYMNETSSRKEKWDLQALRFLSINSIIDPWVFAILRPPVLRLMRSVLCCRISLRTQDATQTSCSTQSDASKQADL

Row | SMILES | IC50 (PTGER2 (EP2)) [nM] | IC50 (PTGER4 (EP4)) [nM]
1 | CCCOc1cc(-c2cc(NCCc3cc4c(cc3OC)OCCO4)ncn2)ccc1CC(=O)O [Example 480, (4-{6-[2-(7-Methoxy-2,3-dihydro-benzo[1,4]dioxin-6-yl)-ethylamino]-pyrimidin-4-yl}-2-propoxy-phenyl)-acetic acid] | 170 | 207
2 | COc1c(CCNc2cc(-c3ccc(CC(=O)O)c(CC(C)C)c3)ncn2)cc2ccsc2c1F [Example 410, (4-{6-[2-(7-Fluoro-6-methoxy-benzo[b]thiophen-5-yl)-ethylamino]-pyrimidin-4-yl}-2-isobutyl-phenyl)-acetic acid] | 153 | 113
3 | COc1cc2c(cc1CCNc1cc(-c3ccc(CC(=O)O)c(OC(F)(F)F)c3)ncn1)OCCO2 [Example 450, (4-{6-[2-(7-Methoxy-2,3-dihydro-benzo[1,4]dioxin-6-yl)-ethylamino]-pyrimidin-4-yl}-2-trifluoromethoxy-phenyl)-acetic acid] | 66 | 97
4 | Cc1c(CCNc2cc(-c3ccc(CC(=O)O)c(OC(F)(F)F)c3)ncn2)ccc2c1OCCO2 [Example 509, (4-{6-[2-(5-Methyl-2,3-dihydro-benzo[1,4]dioxin-6-yl)-ethylamino]-pyrimidin-4-yl}-2-trifluoromethoxy-phenyl)-acetic acid] | 29 | 356
5 | CCOc1cc(-c2cc(NCCc3cc4ccsc4c(F)c3OC)ncn2)ccc1CC(=O)O [Example 406, (2-Ethoxy-4-{6-[2-(7-fluoro-6-methoxy-benzo[b]thiophen-5-yl)-ethylamino]-pyrimidin-4-yl}-phenyl)-acetic acid] | 45 | 62
6 | Cc1cc(-c2cc(NCCc3cc(F)c4sccc4c3)ncn2)cc(C)c1O [Example 532, 4-{6-[2-(7-Fluoro-benzo[b]thiophen-5-yl)-ethylamino]-pyrimidin-4-yl}-2,6-dimethyl-phenol] | 293 | 69
7 | COc1cc2c(c(C)c1CCNc1cc(-c3ccc(C(=O)O)c(SC)c3)ncn1)OCCO2 [Example 400, 4-{6-[2-(7-Methoxy-5-methyl-2,3-dihydro-benzo[1,4]dioxin-6-yl)-ethylamino]-pyrimidin-4-yl}-2-methylsulfanyl-benzoic acid] | 2 | 44
8 | O=C(O)c1ccc(-c2cc(NCCc3cc(F)c4sccc4c3)ncn2)cc1OC1CCC1 [Example 534, 2-Cyclobutoxy-4-{6-[2-(7-fluoro-benzo[b]thiophen-5-yl)-ethylamino]-pyrimidin-4-yl}-benzoic acid] | 332 | 70
9 | CCCc1cc(-c2cc(NCCc3c(OC)cc4c(c3C)OCCO4)ncn2)ccc1CC(=O)O [Example 397, (4-{6-[2-(7-Methoxy-5-methyl-2,3-dihydro-benzo[1,4]dioxin-6-yl)-ethylamino]-pyrimidin-4-yl}-2-propyl-phenyl)-acetic acid] | 7 | 35
10 | CCc1cc(-c2cc(NCCc3ccc4sccc4c3F)ncn2)ccc1CC(=O)O [Example 514, (2-Ethyl-4-{6-[2-(4-fluoro-benzo[b]thiophen-5-yl)-ethylamino]-pyrimidin-4-yl}-phenyl)-acetic acid] | 262 | 112
11 | CCOc1cc(-c2cc(NCCc3cc(F)c4sccc4c3)ncn2)ccc1-c1cc(O)no1 [Example 550, 5-(2-Ethoxy-4-{6-[2-(7-fluoro-benzo[b]thiophen-5-yl)-ethylamino]-pyrimidin-4-yl}-phenyl)-isoxazol-3-ol] | 371 | 63
12 | CCOc1cc(-c2cc(NCCc3cc(F)c4sccc4c3)ncn2)ccc1C(=O)NC [Example 462, 2-Ethoxy-4-{6-[2-(7-fluoro-benzo[b]thiophen-5-yl)-ethylamino]-pyrimidin-4-yl}-N-methyl-benzamide] | 325 | 197
13 | CCOc1cc(-c2cc(NCCc3cc4ccsc4cc3OC)ncn2)cc(F)c1CC(=O)O [Example 371, (2-Ethoxy-6-fluoro-4-{6-[2-(6-methoxy-benzo[b]thiophen-5-yl)-ethylamino]-pyrimidin-4-yl}-phenyl)-acetic acid] | 86 | 88
14 | COc1cc2ccccc2c(C)c1CCNc1cc(-c2ccc(CC(=O)O)c(OC(F)F)c2)ncn1 [Example 443, (2-Difluoromethoxy-4-{6-[2-(3-methoxy-1-methyl-naphthalen-2-yl)-ethylamino]-pyrimidin-4-yl}-phenyl)-acetic acid] | 107 | 29
15 | CCOc1cc(-c2cc(NCCc3ccc4c(c3C)OCCO4)ncn2)ccc1C(=O)O [Example 508, 2-Ethoxy-4-{6-[2-(5-methyl-2,3-dihydro-benzo[1,4]dioxin-6-yl)-ethylamino]-pyrimidin-4-yl}-benzoic acid] | 85 | 748
16 | O=C(O)c1n[nH]c2cc(-c3cc(NCCc4cc(F)c5sccc5c4)ncn3)ccc12 [Example 562, 6-{6-[2-(7-Fluoro-benzo[b]thiophen-5-yl)-ethylamino]-pyrimidin-4-yl}-1H-indazole-3-carboxylic acid] | 803 | 689
17 | CCCc1cc(-c2cc(NCCc3cc(C)c4sccc4c3)ncn2)ccc1C(=O)O [Example 478, 4-{6-[2-(7-Methyl-benzo[b]thiophen-5-yl)-ethylamino]-pyrimidin-4-yl}-2-propyl-benzoic acid] | 788 | 242
18 | CCCc1cc(-c2cc(NCCc3cc(F)c4sccc4c3)ncn2)ccc1C(=O)NCC(C)(C)O [Example 459, 4-{6-[2-(7-Fluoro-benzo[b]thiophen-5-yl)-ethylamino]-pyrimidin-4-yl}-N-(2-hydroxy-2-methyl-propyl)-2-propyl-benzamide] | 683 | 236
19 | COc1cc(-c2cc(NCCc3ccc4c(c3C)OCCO4)ncn2)ccc1CC(=O)O [Example 505, (2-Methoxy-4-{6-[2-(5-methyl-2,3-dihydro-benzo[1,4]dioxin-6-yl)-ethylamino]-pyrimidin-4-yl}-phenyl)-acetic acid] | 427 | 929
20 | O=c1[nH]c(-c2ccc(-c3cc(NCCc4cc(F)c5sccc5c4)ncn3)cc2)no1 [Example 529, 3-(4-(6-((2-(7-fluorobenzo[b]thiophen-5-yl)ethyl)amino)pyrimidin-4-yl)phenyl)-[1,2,4]oxadiazol-5(4H)-one] | 699 | 55
21 | COc1cc(-c2cc(NCCc3ccc4sccc4c3F)ncn2)ccc1CC(=O)O [Example 382, (4-{6-[2-(4-Fluoro-benzo[b]thiophen-5-yl)-ethylamino]-pyrimidin-4-yl}-2-methoxy-phenyl)-acetic acid] | 160 | 81
22 | CCOc1cc(-c2cc(NCCc3cc4c(cc3OC)OCCO4)ncn2)cc(F)c1CC(=O)O [Example 373, (2-Ethoxy-6-fluoro-4-{6-[2-(7-methoxy-2,3-dihydro-benzo[1,4]dioxin-6-yl)-ethylamino]-pyrimidin-4-yl}-phenyl)-acetic acid] | 257 | 118
23 | COc1cc(-c2cc(NCCc3cc(F)c4sccc4c3)ncn2)ccc1-c1cc(O)no1 [Example 553, 5-(4-{6-[2-(7-Fluoro-benzo[b]thiophen-5-yl)-ethylamino]-pyrimidin-4-yl}-2-methoxy-phenyl)-isoxazol-3-ol] | 302 | 80
24 | O=C(O)c1ccc(-c2cc(NCCc3ccc4scc(Cl)c4c3)ncn2)cc1OC1CCC1 [Example 430, 4-{6-[2-(3-Chloro-benzo[b]thiophen-5-yl)-ethylamino]-pyrimidin-4-yl}-2-cyclobutoxy-benzoic acid] | 69 | 66
25 | O=C(O)c1coc2cc(-c3cc(NCCc4cc(F)c5sccc5c4)ncn3)ccc12 [Example 549, 6-{6-[2-(7-Fluoro-benzo[b]thiophen-5-yl)-ethylamino]-pyrimidin-4-yl}-benzofuran-3-carboxylic acid] | 560 | 190
26 | COc1cc2sccc2cc1CCNc1cc(-c2ccc(CC(=O)O)c(OC)c2)ncn1 [Example 381, (2-Methoxy-4-{6-[2-(6-methoxy-benzo[b]thiophen-5-yl)-ethylamino]-pyrimidin-4-yl}-phenyl)-acetic acid] | 51 | 126
27 | CCOc1cc(-c2cc(NCCc3cc4ccsc4c(F)c3OC)ncn2)sc1C(=O)O [Example 484, 3-Ethoxy-5-{6-[2-(7-fluoro-6-methoxy-benzo[b]thiophen-5-yl)-ethylamino]-pyrimidin-4-yl}-thiophene-2-carboxylic acid] | 3 | 3
28 | CCCc1cc(-c2cc(NCCc3cc4c(cc3F)OCCO4)ncn2)ccc1CC(=O)O [Example 528, (4-{6-[2-(7-Fluoro-2,3-dihydro-benzo[1,4]dioxin-6-yl)-ethylamino]-pyrimidin-4-yl}-2-propyl-phenyl)-acetic acid] | 513 | 198
29 | CCc1cc(-c2cc(NCCc3cc(F)c4sccc4c3)ncn2)sc1CC(=O)O [Example 545, (3-Ethyl-5-{6-[2-(7-fluoro-benzo[b]thiophen-5-yl)-ethylamino]-pyrimidin-4-yl}-thiophen-2-yl)-acetic acid] | 394 | 25
30 | CCCc1cc(-c2cc(NCCc3ccc4sccc4c3F)ncn2)ccc1C(=O)O [Example 378, 4-{6-[2-(4-Fluoro-benzo[b]thiophen-5-yl)-ethylamino]-pyrimidin-4-yl}-2-propyl-benzoic acid] | 20 | 36
